Results on four molecules are retold here after US20230013419A1, “ANALOGUES OF 3-(5-METHYL-1,3-THIAZOL-2-YL)-N-{(1R)-1-[2-(TRIFLUORO-METHYL)PYRIMIDIN-5-YL]ETHYL}BENZAMIDE” (Bayer Aktiengesellschaft, priority 2019, published 2023).

Data set [1] can be described thus: In vitro metabolic stability in human liver microsomes. It counts as in vitro ADME. To be noted: for CLblood: hepatic in vivo blood clearance calculated from half-life in human liver microsomes, 1 μM, well-stirred model; for metabolic stability compared to example 11 of WO2016/091776 A1: human liver microsomes; for Fmax: maximal oral bioavailability calculated from human liver microsome clearance. The method, then:
Examples were tested for its metabolic stability in human liver microsomes. Examples were measured one or more times. When measured more than once, data from metabolic stability assays represent average values or median values calculated utilizing data sets obtained from testing of one or more synthetic batch.
In vitro metabolic stability was determined by incubating a solution of test compounds in dimethylsulfoxide (DMSO) and acetonitrile at 1 μM in a suspension of liver microsomes in 100 mM phosphate buffer, pH7.4 (NaH2PO4×H2O+Na2HPO4×2H2O) and at a protein concentration of 0.5 mg/mL at 37° C. The microsomes were activated by adding a co-factor mix containing 8 mM Glucose-6-Phosphat, 4 mM MgCl2; 0.5 mM NADP and 1 IU/ml G-6-P-Dehydrogenase in phosphate buffer, pH 7.4. The metabolic assay was started shortly afterwards by adding the test compound to the incubation at a final volume of 1 mL. Organic solvent was limited to ≤0.01% dimethylsulfoxide (DMSO) and ≤1% acetonitril. During incubation, the microsomal suspensions were continuously shaken at 580 rpm and aliquots were taken at 2, 8, 16, 30, 45 and 60 min, to which equal volumes of cold methanol were immediately added. Samples were frozen at −20° C. over night, subsequently centrifuged for 15 minutes at 3000 rpm and the supernatant was analyzed with an Agilent 1200 HPLC-system with LCMS/MS detection.
The half-life of a test compound was determined from the concentration-time plot. From the half-life the intrinsic clearances were calculated. Together with the additional parameters liver blood flow, specific liver weight and microsomal protein content the hepatic in vivo blood clearance (CL) and the maximal oral bioavailability (Fmax) were calculated for the different species. The hepatic in vivo blood clearance (CLblood) and the maximal oral bioavailability (Fmax) was calculated using the following formulae: CL′intrinsic [ml/(min*kg)]=kel [1/min]/((mg protein/volume of incubation [ml])*fu,inc)*(mg protein/liver weight [g])*(specific liver weight [g liver/kg body weight]); CLblood well-stirred [L/(h*kg)]=(QH [L/(h*kg)]*fu,blood*CL′intrinsic [L/(h*kg)])/(QH [L/(h*kg)]+fu,blood*CL′intrinsic [L/(h*kg)]); Fmax=1−CLblood/QH and using the following parameter values: QH (Liver blood flow): 1.32 L/h/kg (human), 2.1 L/h/kg (dog), 4.2 L/h/kg (rat); specific liver weight: 21 g/kg (human), 39 g/kg (dog), 32 g/kg (rat); microsomal protein content: 40 mg/g. fu,inc and fu,blood is taken as 1 with fu,inc being the unbound fraction (ie the non-protein bound fraction) in the incubation experiment, and fu,blood being the unbound fraction in blood.

Data set [2] can be described thus: High throughput aqueous solubility in phosphate buffer pH 6.5. It counts as physicochemical. To be noted: for solubility at 24 h: aqueous buffer, kinetic from dmso stock, phosphate buffer pH 6.5, 1% DMSO, 24 hrs at room temperature; for solubility compared to example 11 of WO2016/091776 A1: aqueous, pH 6.5. The method, then:
Examples were tested for its solubility in aqueous media (pH 6.5). Examples were synthesized one or more times in accordance with the above-described protocols. When synthesized more than once, data from solubility assays represent average values or median values calculated utilizing data sets obtained from testing of one or more synthetic batch.
The high throughput screening method to determine aqueous drug solubility is based on Thomas Onofrey and Greg Kazan, Performance and correlation of a 96-well high throughput screening method to determine aqueous drug solubility, Millipore Corporation Application Note, 2003; Lit. No. AN1731EN00.
The assay was run in a 96-well plate format. Each well was filled with an individual compound.
All pipetting steps were performed using a robot platform.
100 μl of a 10 mmolar solution of drug in DMSO were concentrated by vacuum centrifugation and resolved in 10 μl DMSO. 990 μl phosphate buffer pH 6.5 were added. The content of DMSO amounts to 1%. The multititer plate was put on a shaker and mixed for 24 hrs at room temperature. 150 μl of the suspension were transferred to a filtration plate. […] A second microtiter plate with 20 μl of a 10 mM solution of drug in DMSO served for calibration. Two concentrations ([…]) were prepared by dilution in DMSO/water 1:1 and used for calibration. Filtrate and calibration plates were quantified by HPLC-MS/MS.
Chromatographic conditions were as follows:
HPLC column: Ascentis Express C18 4.6×30 mm 2.7 μm
Mobile phase: A: Water/0.05% HCOOH • B: Acetonitrile/0.05% HCOOH • 0 min→95% A 5% B • 0.75 min→5% A 95% B • 2.75 min→5% A 95% B • 2.76 min→95% A 5% B • 3 min→95% A 5% B
The areas of sample- and calibration injections were determined by using mass spectrometry software (AB SCIEX: Discovery Quant 2.1.3. and Analyst 1.6.1). The solubility value was obtained by interpolation from the calibration curve.

The target in a further data set is T1, human P2X3 receptor (Homo sapiens, UniProt P56373).
T1 construct: expressed in transfected cells; host or cells: CHO (Chinese hamster ovary) cells, stably co-transfected with mitochondrial photina
T1 sequence (P56373 1-397): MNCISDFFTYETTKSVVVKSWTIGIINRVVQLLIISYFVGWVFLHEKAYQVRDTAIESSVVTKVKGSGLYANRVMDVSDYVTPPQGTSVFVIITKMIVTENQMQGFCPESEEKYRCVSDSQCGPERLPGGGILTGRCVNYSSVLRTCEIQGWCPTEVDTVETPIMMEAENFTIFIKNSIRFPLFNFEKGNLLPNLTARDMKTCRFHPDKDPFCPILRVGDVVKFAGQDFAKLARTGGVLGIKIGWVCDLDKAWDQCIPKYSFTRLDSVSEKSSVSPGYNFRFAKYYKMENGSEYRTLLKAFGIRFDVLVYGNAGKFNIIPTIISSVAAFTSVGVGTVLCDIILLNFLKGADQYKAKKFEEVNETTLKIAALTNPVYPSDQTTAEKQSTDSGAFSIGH
Kind of data set: Cellular in vitro assay for determination of P2X3 receptor activity (CHO cells, photina luminescence, agonist alpha-beta-methylene-ATP). It is filed as cell-based. To be noted: antagonist activity at human P2X3 receptors, recombinant CHO cells, alpha-beta-methylene-ATP at EC50; read-out: Target IC50. The method, then: Cellular In Vitro Assay for Determination of P2X3 Receptor Activity
The determination of antagonistic activity at the P2X3 receptor of the compounds of the invention was performed by use of a recombinant cell line. These cell line derives originally from the Chinese hamster ovary (CHO) cell line (Tjio J. H.; Puck T. T., 1958, J. Exp. Med. 108: 259-271). The cell line is stably transfected with the human P2X3 receptor and a calcium-sensitive photoprotein, mitochondrial photina, which, after reconstitution with the cofactor coelenterazine, emits light in dependence of calcium binding [Bovolenta S, Foti M, Lohmer S, Corazza S., J Biomol Screen. 2007 August; 12(5):694-704]. The strength of the photina luminescence signal corresponds to the level of receptor activation upon agonist binding. An inhibitor would decrease the signal depending on its potency and concentration. Bioluminescence was detected using a suitable luminometer [Milligan G, Marshall F, Rees S, Trends in Pharmacological Sciences 17, 235-237 (1996)].
On the day before the assay, the cells are plated out in culture medium (DMEM/F12 (PAN, P04-41451), 10% FCS) in 384-well microtiter plates and kept in a cell incubator (96% humidity, 5% v/v CO2, […]). On the day of the assay medium is replaced by 2 mM Ca-tyrode buffer (20 mM HEPES, 130 mM NaCl, 5 mM KCl, 5 mM NaHCO3, 2 mM MgCl2, pH 7.4) containing 5 μg/ml coelenterazine. Plates are incubated for 3 hours at 37° C. (96% humidity, 5% v/v CO2). After incubation the test substances in various concentrations are placed for 10 minutes in the wells of the microtiter plate before the agonist alpha-beta-methylene-ATP at EC50 concentration is added. The resulting light signal is measured immediately in the luminometer.
The examples were tested in quadruples per plate and mean values were used to determine IC50 values at the human P2X3 receptors and percentage of maximal inhibition.

Values after ≈ are worked out from the molar mass of the structure shown. Values joined by “and” are separate entries in the source; they are usually repeats but may differ in a detail not shown here. Identical values can stand only once.

Take `Cc1cnc(-c2cc(O[C@@H](CO)CCO)cc(C(=O)N[C@H](C)c3cnc(C(F)(F)F)nc3)c2)s1` [Example 2, 3-{[(2R)-1,4-dihydroxybutan-2-yl]oxy}-5-(5-methyl-1,3-thiazol-2-yl)-N-{(1R)-1-[2-(trifluoromethyl)pyrimidin-5-yl]ethyl}benzamide]: in data set [1], the CLblood is 0.017 mL/min/kg, the “metabolic stability compared to example 11 of WO2016/091776 A1” value was “significantly improved metabolic stability” and the Fmax is on record as 100%. In data set [2], the solubility (in general, the dissolved amount per volume that the medium holds) at 24 h worked out at 96.5 µg/mL (≈ 194 µM) and the “solubility compared to example 11 of WO2016/091776 A1” value is “significantly improved solubility”. The IC50 (in general, the midpoint of a concentration-inhibition curve) at human P2X3 receptor amounted to 5.1 nM.
On to `Cc1cnc(-c2cc(O[C@@H](CO)CC(=O)O)cc(C(=O)N[C@H](C)c3cnc(C(F)(F)F)nc3)c2)s1` [Example 3, (3R)-4-hydroxy-3-[3-(5-methyl-1,3-thiazol-2-yl)-5-({(1R)-1-[2-(trifluoromethyl)-pyrimidin-5-yl]ethyl}carbamoyl)phenoxy]butanoic acid], for which, in data set [1], the CLblood is 0.017 mL/min/kg, the “metabolic stability compared to example 11 of WO2016/091776 A1” value is reported as “significantly improved metabolic stability” and the Fmax is listed as 100%. Also, in data set [2], the solubility at 24 h worked out at 1190 µg/mL (≈ 2330 µM) and the “solubility compared to example 11 of WO2016/091776 A1” value is listed as “significantly improved solubility”. The IC50 at human P2X3 receptor came out at 12 nM.
For the molecule `Cc1cnc(-c2cc(O[C@@H]3CCOC3)cc(C(=O)N[C@H](C)c3cnc(C(F)(F)F)nc3)c2)s1` [example 11 of WO2016/091776 A1, 3-(5-Methyl-1,3-thiazol-2-yl)-5-[(3R)-tetrahydrofuran-3-yloxy]-N-{(1R)-1-[2-(trifluoro-methyl)pyrimidin-5-yl]ethyl}benzamide, reference compound], in data set [1], the CLblood is 8.67 mL/min/kg and 4.5 mL/min/kg; the Fmax was 61% and 79%. Further, the solubility at 24 h in data set [2] was 2.9 µg/mL (≈ 6.06 µM).
In the case of “{[(3R,5R)-5-Hydroxytetrahydrofuran-3-yl]oxy}-5-(5-methyl-1,3-thiazol-2-yl)-N-{(1R)-1-[2-(trifluoromethyl)pyrimidin-5-yl]ethyl}benzamide and {[(3R,5S)-5-hydroxytetrahydrofuran-3-yl]oxy}-5-(5-methyl-1,3-thiazol-2-yl)-N-{(1R)-1-[2-(trifluoromethyl)pyrimidin-5-yl]ethyl}benzamide [Example 1]”, in data set [1], the CLblood is 14.5 mL/min/kg and the Fmax is listed as 34%. Besides, the IC50 on human P2X3 receptor came to 20 nM.
